Results as given in patent US20250018002A1, “Gap Junction Modulators and Their Use for the Treatment of Age-Related Macular Degeneration” (Breye Therapeutics APS, priority 2021, published 2025).
Entries after “also recorded” stand apart in the source; their conditions may differ.

Experiments:
[1] = system: Brown Norway rats; test: Tolerability, macroscopic ophthalmic examinations after IVT injections; type: in vivo; settings: bilateral IVT 5 μl, three weekly injections
Protocol: (§1) For IVT treatment administration, the animals were anesthetized animals, placed under a stereoscope (Leica Microsystems), and a drop of iodine was applied on the cornea and allowed to spread evenly (Minims Povidone lodine 5%, Bausch & Lomb). A small incision in the […] exposing the vitreous chamber was performed using a 30 G needle near the limbus. A microsyringe with a 33G needle (Hamilton Bonaduz AG, Bonaduz) attached was used to inject the compounds into the intravitreal space. The test solution was injected into the intravitreal space for 10 s, the needle was kept in place for additional 30 s before being removed to avoid the reflux of the compound. Chloramphenicol ointment was applied after the injection (Oftan Chlora, Santen Oy). The different treatments were administered three times by bilateral intravitreal administration of a volume of 5 μl at weeks six, seven, and eight after STZ induction.
STZ-induced cataracts are common in this model and developed moderate severity by the end of the study (FIG. 4). All test articles were well-tolerated, and no signs of ocular toxicity were identified by macroscopic ophthalmic examinations. Test articles exerted no differential effects on cataract development (FIG. 4).

[2] = system: STZ-induced DR in the Brown Norway rat; test: PAS staining of trypsin-digested retinal flat mounts: pericytes, pericyte ghosts, acellular capillaries; type: in vivo; settings: week 9 after STZ
Protocol: (§2) Diabetes was induced in the Brown Norway rats (aged 9-10 weeks) by a single dose of streptozotocin (STZ; 65 mg/kg. Sigma) in 10 mM sodium citrate buffer, pH 4.5. After the STZ injection, rats were placed in their cages with ad libitum food and 10% (w/v) sucrose solution in tap water for 48 h. The next morning, 5% glucose (1 ml) was injected intraperitoneally or subcutaneously to all induced rats. Four days after the first STZ injection, the success of the induction was monitored by measuring the blood glucose levels from the saphenous vein. The induction of diabetes was considered successful when the blood glucose values measured by the rapidmeter were equal or higher than 16 mmol/l (288 mg/dl). Animals that were not diabetic based on this criterion 96 h after the first STZ injection received a second STZ injection.
(§3) The selected rats were monitored for blood glucose levels and animal health for 6 weeks, and then treated with weekly intravitreal (IVT) injections of vehicle or test compounds for three weeks for a total of 3× IVT eye injections per eye per animal.
For IVT treatment administration, the animals were anesthetized animals, placed under a stereoscope (Leica Microsystems), and a drop of iodine was applied on the cornea and allowed to spread evenly (Minims Povidone lodine 5%, Bausch & Lomb). […]
Four to six individual images obtained from a central area, and from a peripheral area of the retinal vasculature were acquired using a Leica Thunder 3D Tissue Imager (Leica Microsystems). The number of acellular capillaries, the number of pericytes and the number of pericyte ghosts were manually counted by an investigator blinded to the experimental group assignment.
Vascular abnormalities and the effect of induction of DR by STZ induction were also assessed by quantification of acellular capillaries, pericytes and pericyte ghosts on trypsin-digested retinal wholemounts. For quantification, 4-15 individual images were quantified for each animal and the data from each image were included in the analysis.
Subsequently, number of pericyte ghosts was quantified.

[3] = system: Human retinal pigment epithelial cells (ARPE-19); test: Tight junction organization rate (TiJOR), anti-ZO-1 immunocytochemistry in stressed ARPE-19 monolayers; type: cell-based; settings: danegaptide 100 nM, 24 h pre-treatment, then 48 h 30 mM glucose + sublethal tBHP; n=13-16
Protocol: For immunocytochemistry, ARPE-19 cells were grown to confluency in chamber slides for 72 h. Cells were then be pre-treated with Danegaptide (DGP; 100 nM) or vehicle control for 24 h. Subsequently, cells were challenged with a combination of sublethal oxidative stress (250 μM tert-butyl hydroperoxide; Millipore Sigma, St. Louis, MO) and hyperglycemia (30 mM glucose; Millipore Sigma, St. Louis, MO) for 48 h, in the continued presence of 100 nM DGP or vehicle.
Cells were labelled with anti-ZO-1 antibody (mouse anti-human 70-1, […], cat #339100, Invitrogen, Thermo Fisher Scientific, Carlsbad, CA) in antibody solution (3% normal goat serum, 1% bovine serum albumin, 0.5% Triton X-100, 0.05% sodium azide in 0.1 M Phosphate buffer pH 7.4) for 2 h at room temperature. […]
The tight junction organization rate (TiJOR) was calculated from confocal images, as described previously (Terryn et al., 2013). […]
Tight junction organization was assessed by immunocytochemistry using anti-zonula occludens 1 (ZO-1) immunostaining (bottom images of FIG. 2; that is, FIG. 2B), a major component of Tight Junctions that binds the cytoplasmic domain of both the Gap Junction transmembrane protein, Cx43, and the TJ transmembrane proteins, occludin(s) and claudin(s). The Tight Junction organization index (TiJOR) was calculated according to Terryn et al., 2013 and measures the degree of TJ dependent cell-cell coupling.

[4] = system: kidney epithelial cells; settings: Squires et al., 2021; cited from earlier work
[5] = system: STZ-induced DR in the Brown Norway rat; test: SD-OCT retinal thickness in STZ-induced diabetic retinopathy; type: in vivo; settings: week 9 after STZ
Protocol: as §2, §3, §1
Anesthetized rats were imaged with SD-OCT (Envisu R2200. Bioptigen Inc./Leica Microsystems) retinal scan at week nine as shown in FIG. 5C. The scanned area covers a 2.4×2.4 mm^2 of the retina centred around the optic nerve. Each scan is composed of 100 B Scans each one composed of 1000 A Scans. SD-OCT was performed on both eyes at week nine after DR induction prior to sacrifice and sampling.
The retinal thickness at week nine was analyzed by a convolutional neural network based on U-net architecture using transfer learning approach. The resulting segmentation masks were used to measure the layer thickness in each pixel-width column, i.e. a-scan, resulting in 1000 measuring points for each layer per one b-scan. Only measuring points that passed the automatic quality control criteria set were used in the calculations. The thickness results were presented as SD-OCT measurements of the inner retina, including the nerve ganglion cell layer, inner plexiform and inner nuclear layers; and the outer retina, including the outer plexiform layer, outer nuclear layer, inner and outer segment, and RPE/choroid. […] See FIGS. 5, 7 and 8 for the results of SD-OCT.
SD-OCT scans were taken at week nine prior to sampling. The retinal scans were segmented, and the thickness was analyzed by a convolutional neural network algorithm.
Outer retinal thickness was quantified from SD-OCT images from 24 locations to generate a mean thickness of outer retinal thickness. Outliers were removed using the GROUT method (Q=1%), leading to the removal of a total of 5 outliers (naïve: 0, STZ+Vehicle: 1; STZ+AF564: 1; STZ+Danegaptide: 1; STZ+AF564+Danegaptide: 2).
SD-OCT scans were taken at week nine prior to sampling. Retinal scans were segmented and the thickness was analyzed by a convolutional neural network algorithm. Inner retinal thickness was analyzed by region (FIG. 8).

[6] = system: STZ-induced DR in the Brown Norway rat; test: Evans Blue retinal extravasation (vascular leakage) in STZ-induced diabetic retinopathy; type: in vivo; settings: week 9 after STZ, 3 weekly IVT injections
Protocol: as §2, with “Animals that were not diabetic based on this criterion 96 h after the first STZ injection received a second STZ injection.” left out
The selected rats were monitored for blood glucose levels and animal health for 6 weeks, and then treated with weekly intravitreal (IVT) injections of vehicle or test compounds for three weeks for a total of 3× IVT eye injections per eye per animal. […]
Retinas were homogenized in formamide in a 1:10 ratio (w/v) and incubated overnight at +70°. […] Absorbance (λ=620 nm) of the samples was measured using a plate reader (Cytation 3, BioTek Instruments Inc., Winooski, VT) and the concentration of Evans Blue in each sample was calculated against a standard curve of Evans Blue and normalized to tissue weight. […]

[7] = 3 weekly IVT injections, SD-OCT
[8] = 3 weekly IVT injections, average per group

Compound: NCC(=O)N1C[C@H](NC(=O)c2ccccc2)C[C@H]1C(=O)O [Danegaptide, (2S,4R)-1-(2-aminoacetyl)-4-benzoylamino-pyrrolidine-2-carboxylic acid]
- Tolerability / ocular toxicity [1]: well tolerated
- Effect on number of pericyte ghosts vs STZ+Vehicle ([2]; One-Way ANOVA, Dunnett's test): statistically significant reduction
- Acellular capillaries (number) ([2]; count per image, STZ+Vehicle 22 ± 1): 20 ± 1
- Pericytes (sum of the number of pericytes and pericyte ghosts) ([2]; count per image, STZ+Vehicle 52 ± 2): 49 ± 2
- Protection against loss of Tight Junction organization (TiJOR) [3]: completely protected; also recorded: partial protection
- ATP leakage from kidney epithelial cells [4]: can reduce ATP leakage
- Total retinal thickness, IN [5, 7]: 206 ± 1.8 μm
- Total retinal thickness, IT [5, 7]: 217 ± 1.6 μm
- Total retinal thickness, SN [5, 7]: 205 ± 1.9 μm
- Total retinal thickness, ST [5, 7]: 210 ± 2.6 μm
- Total retinal thickness, Whole Retina [5, 7]: 212 ± 2.2 μm
- Outer retinal thickness, IN (inferior-nasal) [5, 8]: 121.17 μm
- Outer retinal thickness, IT (inferior-temporal) [5, 8]: 123.61 μm
- Outer retinal thickness, SN (superior-nasal) [5, 8]: 117.36 μm
- Outer retinal thickness, ST (superior-temporal) [5, 8]: 118.14 μm
- Effect on inner retinal thickness ([5]; regional analysis ST, SN, IT, IN): No biologically relevant effects
- Outer retinal thickness (mean) ([5]; weekly IVT injections at weeks 6, 7, 8, mean±S.E.M., STZ+Vehicle 123.8±0.9, naïve 119.8±0.5): 119.7±0.8 μm
- Reduction of EB extravasation vs STZ+Vehicle [6]: 68.9%
- Evans Blue (EB) extravasation, % of STZ+Vehicle ([6]; normalized to STZ+Vehicle, mean±S.E.M.): 31.1±5.3%
